Measurements taken from patent US20200078404A1, “COMBINATION OF A CELL THERAPY AND AN IMMUNOMODULATORY COMPOUND” (Juno Therapeutics, Inc., priority 2017, published 2020).

Key:
[1] = system: anti-BCMA CAR T cells; assay: Cytokine production on BCMA/PD-L1 conjugated beads; assay type: cell-based, human; settings: 1 μM lenalidomide, 24 hours
Experimental: In another study, to explore whether the lenalidomide-induced potentiation of CAR T activation and cytokine production could override PD-L1-mediated inhibition, cells were cultured in the presence of BCMA beads generated as described in Example 9, with or without additional conjugation of human recombinant PD-L1-Fc. […] Cytokine production was measured in the supernatant.

[2] = system: OPM2-ffluc tumor; assay: OPM-2 human multiple myeloma orthotopic xenograft mouse model, Study 1; assay type: in vivo
Experimental: Mice (NOD.Cg-Prkdc^scidIL-2rg^tm1Wjl/SzJ mice (NSG; Jackson Labs)) were injected intravenously (i.v.) with 2×10^6 OPM2 (multiple myeloma) cells transfected with firefly luciferase (OPM2-ffluc). Tumor engraftment was allowed to occur for 13 days prior to staging (14 days before CAR-T cell administration) and verified using bioluminescence imaging.
Table E1 summarizes the dosing regimens.
Tumor burden in animals among the various groups was monitored by bioluminescence imaging up to day 39 post-CAR+ T cell dosing. For bioluminescence imaging, mice received intraperitoneal (i.p.) injections of luciferin substrate (CaliperLife Sciences, Hopkinton, Mass.) resuspended in PBS (15 μg/g body weight). The total flux (photon/s) was determined at each time point.
Table E2 lists median survival (ms) (as assessed at day 56 post-CAR+ T cell administration) and number of mice in group surviving until day 56-post-CAR+ T cell administration, for each animal group assessed in this study.

[3] = system: anti-BCMA CAR T cells with OPM-2; assay: Cytokine production of anti-BCMA CAR T cells co-cultured with OPM-2 with or without lenalidomide; assay type: cell-based, human
[4] = system: anti-BCMA CAR T cells; assay: Proliferation and expansion of anti-BCMA CAR T cells stimulated with BCMA-conjugated beads; assay type: cell-based, human; settings: 5 μM lenalidomide
Experimental: Cryofrozen anti-BCMA CAR T cells, produced substantially as described in Example 2 and formulated at a 1:1 ratio of CD4+ and CD8+ T cells, were thawed.
Total cell count, monitored at day 4 (FIG. 21E) and day 7 (FIG. 21F), was increased following stimulation of anti-BCMA CAR+ T cells with beads from a 50 μg/mL BCMA-conjugated bead composition, but not 5 μg/mL BCMA-conjugated bead composition, compared to the cells present at the time of initiation of the incubation (dashed line).
To further assess proliferation, the cells containing anti-BCMA CAR-expressing T cells were labeled with the proliferation marker dye CELLTRACE VIOLET (CTV; ThermoFisher Scientific, Waltham Mass.) in accordance with the manufacturer's protocol prior to incubation with the BCMA-conjugated beads. Proliferation was assessed by dye dilution using flow cytometry on cells that were stimulated with beads from the 50 μg/mL BCMA-conjugated bead composition.
Four days and seven days after addition of BCMA-conjugated beads, the incubated cells were stained with CD4 or CD8 and with an anti-EGFR antibody to determine the percentage of cells positive for EGFRt as a surrogate for CAR+ T cells. At the time of plating, 26% of the CD4+ cells expressed anti-BCMA CAR and 39% of the CD8+ cells expressed anti-BCMA CAR as determined by staining with BCMA-Fc. The percent of EGFRt+CD4+ T cells increased from about 26% at the initiation of the incubation to greater than 40% by day 4 (FIG. 21H) and greater than 60% by day 7 (FIG. 21I) when the cells were incubated in the presence of beads from a 50 μg/mL BCMA-conjugated bead composition. […] The extent of cell expansion was greatest when cells were incubated in the presence of beads from a 50 μg/mL BCMA-conjugated bead composition compared to beads from the 5 μg/mL BCMA-conjugated bead composition.

[5] = system: anti-CD19 CAR-expressing T cells; assay: Cytokine production after anti-idiotypic antibody stimulation; settings: anti-idiotypic antibody 0.3-30 μg/ml, 24 hours; Compound 1 100, 1000 nM; lenalidomide 500, 5000 nM
[6] = system: K562.CD19 target cells; assay: Cytolytic function of anti-CD19 CAR-expressing T cells against K562.CD19 target cells; assay type: cell-based, human
Experimental: K562.CD19 target cells were transduced with NucLight Red to permit their tracking by microscopy. Cytolytic activity was assessed by measuring the loss of viable target cells over a period of five days, as determined by red fluorescent signal (using the IncuCyte® Live Cell Analysis System, Essen Bioscience).

[7] = system: RPMI-8226 target cells; assay: Serial restimulation on BCMA-conjugated beads, cytolytic activity against RPMI-8226 at each reset; assay type: cell-based, human; settings: preincubated with 5 μM lenalidomide for 7 days or 14 days
Experimental: Anti-BCMA CAR T cell compositions were generated from three different donors, each containing T cells expressing the same anti-BCMA CAR, thawed, and were incubated for seven days with beads (diameter about 4.5 μm) at a 1:1 ratio of beads to cells from a 50 μg/mL BCMA-conjugated bead composition generated as described in Example 9.
Cells from each condition were plated in triplicate. The % cell killing compared to vehicle only control (set at 100%) was determined.

[8] = system: K562.CD19 target cells; assay: Serial stimulation with K562.CD19: cytolytic function at day 24; assay type: cell-based, human; settings: day 24 after serial stimulation
Text: Every 3-4 days (start of each new round), the cells were counted.

## Nc1cccc2c1CN(C1CCC(=O)NC1=O)C2=O (centres unmarked) [lenalidomide, 3-(4-amino-1-oxo-1,3-dihydro-2H-isoindol-2-yl)piperidine-2,6-dione]
[1]
  secreted cytokine levels (IFN-γ, IL-2, TNF-α): potentiated secreted cytokine levels
[2]; added to anti-BCMA CAR+ T cells, high and low doses, day −1 or delayed dosing
  survival effects: improved survival effects
[2]; lenalidomide 10 mg/kg i.p. daily from day −1 (A) or day 14 (B), cell dose hi 1.00E+06, low 5.00E+05
  # animals surviving day 56 post-CART: 0/8
[2]; lenalidomide 10 mg/kg i.p. daily from day −1 (A) or day 14 (B), cell dose hi 1.00E+06, low 5.00E+05, listed as lenalidomide (A)
  Median Survival (assessed at day 6): 28
[2]; lenalidomide 10 mg/kg i.p. daily from day −1 (A) or day 14 (B), cell dose hi 1.00E+06, low 5.00E+05, listed as lenalidomide (B)
  Median Survival (assessed at day 6): 25
[2]; lenalidomide alone
  tumor growth or tumor burden: not observed to reduce tumor growth or tumor burden
[2]; lenalidomide from day 14 added to CAR-T cells, both doses
  tumor growth and tumor burden: trend towards slower tumor growth and reduced tumor burden
[2]; lenalidomide from day −1 added to CAR+ T cells, both doses
  tumor growth and tumor burden (bioluminescence): slower tumor growth and reduced tumor burden
[3]; 0.01-10 μM lenalidomide, E:T 1:1, 24 hours, four donors
  cytokine production and/or accumulation (IFNγ, IL-2, TNF-α): enhance cytokine production and/or accumulation by antigen-stimulated anti-BCMA CAR+ T cells in a dose-dependent manner
[3]; all CAR T donors, concentration-dependent
  IFN-γ, IL-2 and TNF-α production: significantly increased IFN-γ, IL-2, and TNF-α production
[3]; healthy donor and multiple myeloma patient, E:T 1:1, 24 hours
  cytokine production (IFNγ, IL-2): increased by lenalidomide in a concentration-dependent manner
[4]; 50 ug beads, day 7
  total cell count (proliferation): small increase in proliferation
[4]; 50 μg/mL beads, day 4 but not day 7
  proliferation by CTV dilution: slight delay in proliferation
[4]; day 4 and day 7
  extent of CAR+ T cell expansion (% EGFRt+): did not substantially impact the extent of CAR+ T cell expansion
[5]
  IFN-γ, IL-2 and TNF-α production: increased relative to the vehicle control
[6]; 2.5:1 E:T ratio, some donors
  cytolytic activity of anti-CD19 CAR-expressing cells: slightly reduced cytolytic activity
[6]; 5:1 E:T ratio, high concentrations, Donor 2, no effects with Donors 1 and 3
  cytolytic activity of anti-CD19 CAR-expressing T cells: slight but consistent increase in cytolytic activity
[6]; five days, three donors
  cytolytic function of anti-CD19 CAR-expressing T cells: limited effect on cytolytic function
[7]
  cytolytic activity: exhibited greater cytolytic activity
[8]
  cytolytic activity of anti-CD19 CAR-expressing T cells: increase the cytolytic activity
